Source: patent WO2019242687A1, “1,3-dioxane-4,6-dione compound, and preparation method, pharmaceutical composition, and application thereof” (Shanghai Institute of Materia Medica of CAS, priority 2018, dated 2018)
Positions count from the first letter of the chain named. Entries after “also recorded” stand apart in the source; their conditions may differ.

Tests used:
SIRT1 F273L = target: T1, SIRT1 F273L (Homo sapiens, UniProt Q96EB6, F273L); experiment: Inhibitory constant on SIRT1 mutant F273L; type: biochemical
T1 construct: made in house
T1 sequence (Q96EB6 1-747 F273L): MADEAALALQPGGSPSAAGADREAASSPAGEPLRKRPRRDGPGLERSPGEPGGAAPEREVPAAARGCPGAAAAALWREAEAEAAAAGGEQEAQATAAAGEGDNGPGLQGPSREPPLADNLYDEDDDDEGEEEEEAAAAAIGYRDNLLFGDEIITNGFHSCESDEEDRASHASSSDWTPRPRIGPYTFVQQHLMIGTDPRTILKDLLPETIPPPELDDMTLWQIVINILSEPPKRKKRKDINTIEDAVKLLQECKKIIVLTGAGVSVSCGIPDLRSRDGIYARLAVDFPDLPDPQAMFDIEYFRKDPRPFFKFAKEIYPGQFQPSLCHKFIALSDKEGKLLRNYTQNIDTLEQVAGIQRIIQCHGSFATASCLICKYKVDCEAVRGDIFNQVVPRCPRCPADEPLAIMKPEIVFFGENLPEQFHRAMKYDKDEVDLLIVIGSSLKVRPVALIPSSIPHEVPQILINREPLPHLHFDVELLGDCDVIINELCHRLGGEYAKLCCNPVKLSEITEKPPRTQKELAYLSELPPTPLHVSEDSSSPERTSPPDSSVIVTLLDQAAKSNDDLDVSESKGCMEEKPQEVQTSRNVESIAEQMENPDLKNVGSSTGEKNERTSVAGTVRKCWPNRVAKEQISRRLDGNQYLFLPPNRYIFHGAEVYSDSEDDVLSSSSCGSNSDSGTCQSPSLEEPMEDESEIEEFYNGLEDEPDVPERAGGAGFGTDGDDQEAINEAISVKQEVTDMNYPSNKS

[1] = target: T2, mini-hSIRT1 protein (SIRT1 Cy5) (Homo sapiens, UniProt Q96EB6); experiment: Microscale thermophoresis (MST) binding experiment
T2 sequence (Q96EB6 with tags, fused parts or gaps limits assumed): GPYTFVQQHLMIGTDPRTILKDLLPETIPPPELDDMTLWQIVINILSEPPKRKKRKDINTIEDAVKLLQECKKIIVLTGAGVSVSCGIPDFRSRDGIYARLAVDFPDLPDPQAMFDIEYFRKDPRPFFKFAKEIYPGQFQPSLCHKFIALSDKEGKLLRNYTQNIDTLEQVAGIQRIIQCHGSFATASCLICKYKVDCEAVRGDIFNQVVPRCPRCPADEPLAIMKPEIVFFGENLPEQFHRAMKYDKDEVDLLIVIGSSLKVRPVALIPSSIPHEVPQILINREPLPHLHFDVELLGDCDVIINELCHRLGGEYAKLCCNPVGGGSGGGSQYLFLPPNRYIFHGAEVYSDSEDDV

SIRT1 D348A = target: T3, SIRT1 D348A (Homo sapiens, UniProt Q96EB6, D348A); experiment: Inhibitory constant on SIRT1 mutant D348A; type: biochemical
T3 construct: made in house
T3 sequence (Q96EB6 1-747 D348A): T1 sequence (Q96EB6 1-747 F273L) with L273F, D348A

SIRT1 = target: T4, SIRT1 (Homo sapiens, UniProt Q96EB6); experiment: SIRT1 enzyme activity test (deacetylase inhibition); type: biochemical
T4 sequence (Q96EB6 1-747): T1 sequence (Q96EB6 1-747 F273L) with L273F

COc1cc(C=C2C(=O)OC(c3ccccc3)OC2=O)cc(Br)c1O (stereo not shown) [Compound S3, 5-(3-bromo-4-hydroxy-5-methoxybenzylidene) -2-phenyl-1,3-dioxane-4,6-dione]
Ki (SIRT1 F273L): 850 nM
type of inhibition toward NAD+ ([1]; MST, Figure 3): non-competitive inhibitor of NAD +
type of inhibition/binding toward Abz polypeptide ([1]; MST, Figure 3): competitive inhibitor of Abz polypeptide; also recorded: competitively binds to the binding site of the substrate polypeptide Abz
Kd of binding to SIRT1 (change) ([1]; with 500 μM Abz polypeptide): increased
binding curve with SIRT1 protein (shift), with Abz polypeptide ([1]; with 500 μM Abz polypeptide): shifted to the right
binding curve with SIRT1 protein (shift), with NAD+ ([1]; with 5 mM NAD+): did not change significantly
Ki (SIRT1 D348A): 4330 nM
concentration dependence of SIRT1 inhibition (SIRT1; Figure 1, in vitro): 以浓度依赖性方式抑制SIRT1酶活; also recorded: inhibits SIRT1 activity in a concentration-dependent manner
IC50 (SIRT1; Table 2, 1 μM SIRT1, 500 μM NAD+, 10 μM substrate peptide, 37 °C, 30 min): 1310 ± 260 nM
Inhibition of SIRT1 deacylation (IC50) (SIRT1; Table 3, SITR1 [sic], 1 μM SIRT1, 500 μM NAD+, 10 μM substrate peptide): 1.31 ± 0.26
